This is an account of results in US8598157B2, “5-alkynyl-pyridines” (Boehringer Ingelheim International GmbH, priority 2011, dated 2013).

For one assay, the system named is BT474 cells. The experiment in a line: alamarBlue BT474 cell assay (antiproliferative/cytotoxicity). It is filed as cell-based. Conditions: BT-474 human breast cancer cell line. In short, it runs like this: (§1)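 Cells were seeded overnight at 37 °C, then exposed in duplicate to compounds at final 10 μM with 1:3 serial dilutions for 5-6 days. alamarBlue was added for 8 h at 37 °C and fluorescence read (ex 530-560 nm, em 590 nm); EC50 was calculated after medium-blank subtraction.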

A further assay relates to MCF7 cells. Put plainly: alamarBlue MCF7 cell assay (antiproliferative/cytotoxicity). It counts as cell-based. Conditions: MCF7 human breast cancer cell line. The text has this:
The H460, MB453, U87, MCF7 and BT474 alamarBlue cell assays provide EC50 values indicative of the antiproliferative or cytotoxic effects of the compounds to respectively the H460 (human non small cell line cancer), MB-453 (breast cancer cell line), U87 (glioblastoma cell line), MCF7 (breast cancer cell line) and BT474 (breast cancer cell line). As known in the field, antiproliferative or cytotoxic effect against this cell lines would be expected to be indicative of activity in treating lung, breast and brain cancers. See R. Marone R et al. Biochim. Biophys. Acta. 2008 January; 1784(1):159-85. S. Yaguchi et al., J. Natl. Cancer Inst. 2006 Apr. 19; 98(8):545-56.
Method Type: Antiproliferative/Cytotoxicity
alamarBlue® is designed to provide a rapid and sensitive measure of cell proliferation and cytotoxicity in various human and animal cell lines. The assay is based on the reduction of alamarBlue in the reducing environment of living (metabolically active) cells. In the presence of added cytotoxic or antiproliferative compounds, the innate metabolic activity ceases.
AlamarBlue is soluble and stable in culture medium. Measurements are made fluorometrically by exciting at 530-560 nm and measuring emission at 590 nm. In reporting percent alamarBlue reduction by monitoring fluorescence, data are expressed as fluorescence emission intensity units as a function of time of incubation.
3. Equipment • 96-well plates, flat bottom (Falcon, Cat. No.: 353072) • 96-well plates, U-shaped (Costar, Cat. No.: 3799) • CO2-Incubator • Microplate Reader, Spectramax Plus, Molecular Devices 4. Typical Procedure • Day 0: Seed 3000 BT-474 cells (IMDM/5% FCS, 1% NEAA, 1% Sodiumpyruvat) in 150 μl medium into a 96-well plate, flat bottom (include mediumblank). Incubate plates at 37° C. in a CO2 incubator overnight. • Day 1: Dilute compounds to a concentration 40 μM->1:3 in medium, 10 dilution steps, in 96-well plates. • Add 50 μl per well of each dilution (total volume per well 200 μl; final conc. of cpds: 10 μM->1:3). If required, test further dilutions. • All concentrations are tested in duplicates. • Controls: Cells w/o cpd. (+50 μl medium/DMSO). • Cells are incubated with compounds for 5-6 days. • Day 6 or 7: Add 25 μl of alamarBlue solution to each well and incubate for 8 hours at 37° C. Measure fluorescence by exciting at 530-560 nm and measuring emission at 590 nm. 5. Evaluation • Subtract average value for medium blank from sample readings • Calculate EC50 using GraphPad Prism (Fifty)

In the next assay the test system is U87 cells. Put plainly: U87 cell assay (antiproliferative/cytotoxicity). It is filed as cell-based. Conditions: U-87MG human glioblastoma cells. In short, it runs like this:
as §1

The test system of another assay is H460 cells. Put plainly: alamarBlue H460 cell assay (antiproliferative/cytotoxicity). It counts as cell-based. Conditions: NCI-H460; H460 human lung carcinoma cells. An outline of the steps:
as §1
A general note: Alamar Blue is a resazurin reagent that responds to reducing activity.

The test system of the next assay is MB453 cells. The experiment in a line: alamarBlue MB453 cell assay (antiproliferative/cytotoxicity). It is filed as cell-based. Conditions: Homo sapiens; MDA MB 453 breast cancer cell line. An outline of the steps: as §1
The target of the next assay is PI3Kalpha (Homo sapiens (Human), UniProt P42336). The experiment in a line: Inhibition of PI3Kalpha-induced PIP-2 phosphorylation (filter-binding assay). It counts as biochemical. Conditions: 33P-ATP, p85alpha/His-p110alpha, read-out: IC50 PI3Kα. In short, it runs like this:
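Radiometric filter-binding assay: PI3Kα (25 ng/well) preincubated 20 min at room temperature with compound and PIP2-containing lipid vesicles plus phosphotyrosine PDGFRβ peptide. Reaction started with cold ATP (1 μM final) and [33P]-ATP and run 120 min at room temperature; filter-captured radioactivity counted, IC50 from duplicate dilution series.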

Chain of PI3Kalpha (P42336 whole entry): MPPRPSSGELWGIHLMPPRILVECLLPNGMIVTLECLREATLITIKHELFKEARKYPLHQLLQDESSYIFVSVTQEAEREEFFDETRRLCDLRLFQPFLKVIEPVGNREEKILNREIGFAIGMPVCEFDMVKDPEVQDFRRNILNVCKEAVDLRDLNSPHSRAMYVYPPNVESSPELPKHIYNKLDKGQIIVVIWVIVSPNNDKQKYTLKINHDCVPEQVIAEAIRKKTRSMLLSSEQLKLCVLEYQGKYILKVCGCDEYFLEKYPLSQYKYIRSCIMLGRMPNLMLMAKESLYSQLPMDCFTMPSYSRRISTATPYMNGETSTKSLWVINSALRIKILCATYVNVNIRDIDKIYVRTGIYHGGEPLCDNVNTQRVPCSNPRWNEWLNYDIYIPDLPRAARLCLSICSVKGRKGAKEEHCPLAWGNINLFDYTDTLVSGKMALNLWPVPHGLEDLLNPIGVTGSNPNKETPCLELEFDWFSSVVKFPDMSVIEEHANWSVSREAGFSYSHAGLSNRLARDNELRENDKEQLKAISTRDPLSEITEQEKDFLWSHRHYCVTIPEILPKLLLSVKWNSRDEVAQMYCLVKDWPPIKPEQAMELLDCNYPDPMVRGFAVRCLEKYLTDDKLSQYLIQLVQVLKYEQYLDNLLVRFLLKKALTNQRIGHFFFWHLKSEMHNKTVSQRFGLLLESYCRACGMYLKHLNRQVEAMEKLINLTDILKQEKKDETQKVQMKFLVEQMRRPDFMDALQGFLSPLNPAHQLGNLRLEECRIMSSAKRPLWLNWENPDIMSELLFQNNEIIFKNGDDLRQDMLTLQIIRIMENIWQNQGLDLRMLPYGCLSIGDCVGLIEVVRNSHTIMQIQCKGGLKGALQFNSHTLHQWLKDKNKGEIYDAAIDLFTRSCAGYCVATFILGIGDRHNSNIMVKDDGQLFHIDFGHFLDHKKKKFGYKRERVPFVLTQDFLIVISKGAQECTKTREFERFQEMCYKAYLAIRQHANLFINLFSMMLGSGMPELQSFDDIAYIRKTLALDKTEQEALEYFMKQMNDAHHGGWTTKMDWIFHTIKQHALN

Usually EC50 stands for the concentration needed to bring the measured effect to its halfway point. Broadly, the IC50 is the point on the concentration scale where inhibition reaches its midpoint. Turning to `CC(=O)N1CCN(c2ncnc(C)c2C#Cc2cnc(C)c(NS(=O)(=O)c3ccccc3)c2)CC1` [Example I-61, N-{5-[4-(4-Acetyl-piperazin-1-yl)-6-methyl-pyrimidin-5-ylethynyl]-2-methyl-pyridin-3-yl}-benzenesulfonamide], the half-maximal effective concentration (EC50) with BT474 cells worked out at 1120 nM; in the assay on MCF7 cells it was 39 nM; in the assay on U87 cells it was 631 nM; in the assay with H460 cells it was 791 nM; in the assay with MB453 cells, 262 nM. Besides, the IC50 on PI3Kalpha is 2 nM.
Consider `Cc1ncc(C#Cc2c(C)ncnc2N2CCOCC2)cc1NS(=O)(=O)c1ccc(F)cc1F` [Example I-41, 2,4-Difluoro-N-[2-methyl-5-(4-methyl-6-morpholin-4-yl-pyrimidin-5-ylethynyl)-pyridin-3-yl]-benzenesulfonamide], for which the concentration for a half-maximal effect (EC50) with BT474 cells was determined as 69 nM; in the assay on MCF7 cells it was 19 nM; in the assay with U87 cells, 287 nM; in the assay on H460 cells, 146 nM; with MB453 cells it was 102 nM. The IC50 on PI3Kalpha is 0.51 nM.
Take `Cc1ncc(C#Cc2c(C)ncnc2N2CCOCC2)cc1NS(=O)(=O)c1ccccc1Br` [Example I-8, 2-Bromo-N-[2-methyl-5-(4-methyl-6-morpholin-4-yl-pyrimidin-5-ylethynyl)-pyridin-3-yl]-benzenesulfonamide]: the EC50 in the assay on BT474 cells turned out to be 134 nM; with MCF7 cells it was 46 nM; in the assay on U87 cells, 205 nM; with H460 cells, 47 nM; with MB453 cells it was 143 nM. Moreover, the half-inhibitory concentration (IC50) at PI3Kalpha is 1 nM.
Consider `Cc1ncnc(N2CCOCC2)c1C#Cc1cncc(NS(=O)(=O)c2cccnc2)c1` [Example I-22, Pyridine-3-sulfonic acid [5-(4-methyl-6-morpholin-4-yl-pyrimidin-5-ylethynyl)-pyridin-3-yl]-amide], for which the EC50 with BT474 cells worked out at 3410 nM; in the assay on MCF7 cells, 1380 nM; in the assay with U87 cells it was 10000 nM; in the assay on H460 cells, 4500 nM; in the assay with MB453 cells, 1420 nM. The IC50 on PI3Kalpha stood at 0.8 nM.
As to `Cc1ncc(C#Cc2c(C)ncnc2N(C)C2CCOCC2)cc1NS(=O)(=O)c1ccc(F)cc1F` [Example I-16, 2,4-Difluoro-N-(2-methyl-5-{4-methyl-6-[methyl-(tetrahydro-pyran-4-yl)-amino]-pyrimidin-5-ylethynyl}-pyridin-3-yl)-benzenesulfonamide], the EC50 in the assay on BT474 cells came to 309 nM; in the assay on MCF7 cells it was 118 nM; with U87 cells, 839 nM; with H460 cells it was 226 nM; in the assay on MB453 cells, 397 nM. In addition, at PI3Kalpha, the IC50 was 0.86 nM.
Consider `COc1ncc(C#Cc2c(C)ncnc2N2CCOCC2)cc1NS(=O)(=O)c1ccc(F)cc1F` [Example I-29, 2,4-Difluoro-N-[2-methoxy-5-(4-methyl-6-morpholin-4-yl-pyrimidin-5-ylethynyl)-pyridin-3-yl]-benzenesulfonamide], for which the EC50 is 10 nM in the assay with BT474 cells; 3 nM in the assay with MCF7 cells; 84 nM in the assay with U87 cells; 11 nM with H460 cells; 28 nM with MB453 cells. In addition, the IC50 at PI3Kalpha stood at 0.44 nM.
`Cc1ncnc(N2CCOCC2)c1C#Cc1cncc(NS(=O)(=O)c2ccccc2)c1` [Example I-19, N-[5-(4-Methyl-6-morpholin-4-yl-pyrimidin-5-ylethynyl)-pyridin-3-yl]-benzenesulfonamide]: the EC50 in the assay with BT474 cells was 373 nM; in the assay with MCF7 cells, 56 nM; in the assay with U87 cells it was 707 nM; in the assay on H460 cells it was 319 nM; with MB453 cells, 387 nM. For the same molecule, on PI3Kalpha, the IC50 stood at 0.46 nM.
For `COc1cccc(S(=O)(=O)Nc2cc(C#Cc3c(C)ncnc3N3CCOCC3)cnc2C)c1` [Example I-4, 3-Methoxy-N-[2-methyl-5-(4-methyl-6-morpholin-4-yl-pyrimidin-5-ylethynyl)-pyridin-3-yl]-benzenesulfonamide], the EC50 in the assay on BT474 cells amounted to 246 nM; in the assay on MCF7 cells, 296 nM; in the assay with U87 cells, 467 nM; in the assay with H460 cells it was 114 nM; with MB453 cells, 294 nM. The IC50 at PI3Kalpha worked out at 1 nM.
For `CCc1ncnc(N2CCC(O)CC2)c1C#Cc1cnc(C)c(NS(=O)(=O)c2ccc(F)cc2)c1` [Example I-66, N-{5-[4-Ethyl-6-(4-hydroxy-piperidin-1-yl)-pyrimidin-5-ylethynyl]-2-methyl-pyridin-3-yl}-4-fluoro-benzenesulfonamide], the EC50 was determined as 91 nM in the assay on BT474 cells; 145 nM in the assay on MCF7 cells; 540 nM in the assay on U87 cells; 444 nM with H460 cells; 175 nM in the assay on MB453 cells. Further, the IC50 at PI3Kalpha was 0.48 nM.
With `Cc1ccccc1S(=O)(=O)Nc1cc(C#Cc2c(C)ncnc2N2CCOCC2)cnc1C` [Example I-11, 2-Methyl-N-[2-methyl-5-(4-methyl-6-morpholin-4-yl-pyrimidin-5-ylethynyl)-pyridin-3-yl]-benzenesulfonamide], the EC50 in the assay with BT474 cells stood at 271 nM; in the assay on MCF7 cells, 190 nM; in the assay with U87 cells it was 466 nM; in the assay with H460 cells, 56 nM; in the assay with MB453 cells, 298 nM. The IC50 on PI3Kalpha is 1 nM.
With `Cc1ncc(C#Cc2c(C)ncnc2N2CCOCC2)cc1NS(=O)(=O)c1ccccc1Cl` [Example I-5, 2-Chloro-N-[2-methyl-5-(4-methyl-6-morpholin-4-yl-pyrimidin-5-ylethynyl)-pyridin-3-yl]-benzenesulfonamide], the EC50 with BT474 cells stood at 152 nM; in the assay on MCF7 cells, 61 nM; in the assay with U87 cells, 271 nM; with H460 cells, 64 nM; in the assay with MB453 cells it was 202 nM. On PI3Kalpha, the IC50 was found to be 1 nM.
Take `Cc1ncc(C#Cc2c(C)ncnc2N2CCN(C3CC3)CC2)cc1NS(=O)(=O)c1ccccc1` [Example I-58, N-{5-[4-(4-Cyclopropyl-piperazin-1-yl)-6-methyl-pyrimidin-5-ylethynyl]-2-methyl-pyridin-3-yl}-benzenesulfonamide]: the EC50 in the assay with BT474 cells was 3000 nM; in the assay on MCF7 cells, 1300 nM; in the assay on U87 cells, 25000 nM; in the assay on H460 cells, 2990 nM; in the assay on MB453 cells, 4640 nM. The IC50 on PI3Kalpha worked out at 16 nM.
On to `Cc1ncc(C#Cc2c(C)ncnc2N2CCOCC2)cc1NS(=O)(=O)c1cn(C)cn1` [Example I-9, 1-Methyl-1H-imidazole-4-sulfonic acid [2-methyl-5-(4-methyl-6-morpholin-4-yl-pyrimidin-5-ylethynyl)-pyridin-3-yl]-amide], for which the EC50 came out at 856 nM with BT474 cells; 748 nM in the assay with MCF7 cells; 1450 nM in the assay with U87 cells; 1460 nM in the assay with H460 cells; 1070 nM with MB453 cells. Also, on PI3Kalpha, the IC50 was 1 nM.
Consider `Cc1ncnc(N2CCOCC2)c1C#Cc1cncc(NS(=O)(=O)c2cnn(C)c2)c1` [Example I-23, 1-Methyl-1H-pyrazole-4-sulfonic acid [5-(4-methyl-6-morpholin-4-yl-pyrimidin-5-ylethynyl)-pyridin-3-yl]-amide], for which the EC50 in the assay with BT474 cells was 3500 nM; with MCF7 cells, 214 nM; with U87 cells, 1750 nM; in the assay on H460 cells, 2180 nM; in the assay with MB453 cells it was 1040 nM. In addition, the IC50 at PI3Kalpha worked out at 0.66 nM.
Take `Cc1ncc(C#Cc2c(C)ncnc2N2CCOCC2)cc1NS(=O)(=O)c1cccnc1` [Example I-54, Pyridine-3-sulfonic acid [2-methyl-5-(4-methyl-6-morpholin-4-yl-pyrimidin-5-ylethynyl)-pyridin-3-yl]-amide]: the EC50 in the assay with BT474 cells was 949 nM; with MCF7 cells, 44 nM; with U87 cells it was 581 nM; in the assay on H460 cells, 553 nM; with MB453 cells, 274 nM. Besides, the IC50 at PI3Kalpha was found to be 1 nM.
